Converted amounts (≈) assume the structure as drawn.
Key:
Assay in all cases: ≥ marks a high value that may be exact or a test limit, other limits are often not marked, values filed in µg/mL are converted to µM
[1] = system: Candida albicans ATCC 2002
[2] = system: Staphylococcus aureus ATCC 2592
[3] = system: Escherichia coli ATCC 25922
Escherichia coli JW0013 = system: Escherichia coli JW0013
[4] = system: Pseudomonas aeruginosa ATCC 9027
Bacillus subtilis = system: Bacillus subtilis
Acinetobacter baumannii = system: Acinetobacter baumannii
[5] = system: Staphylococcus aureus ATCC 29213
[6] = system: Salmonella enterica subsp. enterica serovar Typhimurium C77-31
[7] = system: Staphylococcus epidermidis ATCC 12228
Escherichia coli = system: Escherichia coli
Pseudomonas aeruginosa = system: Pseudomonas aeruginosa
Escherichia coli UB1005 = system: Escherichia coli UB1005
Staphylococcus aureus = system: Staphylococcus aureus
[8] = system: Staphylococcus aureus ATCC 25923
Escherichia coli B = system: Escherichia coli B
Bacillus subtilis 168 = system: Bacillus subtilis 168

Row | Compound | MIC [1] | MIC [2] | MIC [3] | MIC (Escherichia coli JW0013) | MIC (Pseudomonas aeruginosa) | MIC (Staphylococcus aureus) | further results
1 | CC[C@H](C)[C@H](NC(=O)[C@@H]1CCCN1C(=O)[C@H](CCCN=C(N)N)NC(=O)[C@@H]1CCCN1C(=O)[C@@H](NC(=O)[C@@H]1CCCN1C(=O)[C@H](CC(C)C)NC(=O)[C@@H](N)Cc1ccccc1)[C@@H](C)CC)C(=O)N[C@@H](CC(C)C)C(=O)N[C@@H](CC(C)C)C(=O)NCC(=O)N[C@@H](CC(C)C)C(=O)N[C@@H](CC(C)C)C(N)=O [FLPIPRPILLGLL] | 17.1 µM (≈ 25 µg/mL) | 6.84 µM (≈ 9.99 µg/mL) | 20.5 µM (≈ 30 µg/mL) | – | – | – | –
2 | CC[C@H](C)[C@H](NC(=O)[C@H](CCCN=C(N)N)NC(=O)[C@H](CCCN=C(N)N)NC(=O)[C@@H]1CCCN1C(=O)[C@@H]1CCCN1C(=O)[C@H](CCCN=C(N)N)NC(=O)[C@@H]1CCCN1C(=O)[C@H](CCCN=C(N)N)NC(=O)[C@@H]1CCCN1C(=O)[C@H](CC(C)C)NC(=O)[C@H](Cc1ccc(O)cc1)NC(=O)[C@@H]1CCCN1C(=O)[C@@H]1CCCN1C(=O)[C@H](CCCCN)NC(=O)[C@H](CC(=O)O)NC(=O)[C@@H]1CCCN1)C(=O)N[C@@H](Cc1ccc(O)cc1)C(=O)N[C@@H](CC(N)=O)C(=O)N[C@@H](CCCN=C(N)N)C(N)=O [PDKPPYLPRPRPPRRIYNR] | – | – | – | 2.01 µM (≈ 4.8 µg/mL) | – | – | –
3 | CC(C)C[C@H](NC(=O)[C@H](CC(C)C)NC(=O)[C@H](Cc1ccccc1)NC(=O)[C@@H]1CCCN1C(=O)[C@H](CC(C)C)NC(=O)[C@@H](N)Cc1ccccc1)C(=O)N[C@@H](CO)C(=O)N[C@@H](C)C(=O)N[C@@H](CC(C)C)C(=O)N1CCC[C@H]1C(=O)N[C@@H](CCCCN)C(=O)N[C@H](C(=O)N[C@@H](Cc1ccccc1)C(=O)N[C@H]1CSSC[C@@H](C(=O)O)NC(=O)[C@H](CCCCN)NC(=O)[C@H](CCCCN)NC(=O)[C@H](CO)NC(=O)[C@H](Cc2ccccc2)NC(=O)[C@H](Cc2ccccc2)NC1=O)C(C)C [FLPFLLSALPKVFCFFSKKC] | ≥ 43 µM | 8 µM (≈ 18.7 µg/mL) | 16 µM (≈ 37.3 µg/mL) | – | – | – | MIC [4]: 32 µM (≈ 74.7 µg/mL)
4 | CC[C@H](C)[C@H](NC(=O)[C@H](CCCN=C(N)N)NC(=O)[C@H](CCCN=C(N)N)NC(=O)[C@@H]1CCCN1C(=O)[C@@H]1CCCN1C(=O)[C@H](CCCN=C(N)N)NC(=O)[C@H](CCCCN)NC(=O)[C@H](CCCN=C(N)N)NC(=O)[C@@H]1CCCN1C(=O)[C@H](CC(C)C)NC(=O)[C@H](CCCN=C(N)N)NC(=O)[C@@H]1CCCN1C(=O)[C@H](CCCCN)NC(=O)[C@H](CCCCN)NC(=O)[C@H](CC(=O)O)NC(=O)[C@@H](N)C(C)C)C(=O)N[C@@H](Cc1ccc(O)cc1)C(=O)N[C@@H](CC(N)=O)C(=O)N[C@@H](CCCN=C(N)N)C(N)=O [VDKKPRLPRKRPPRRIYNR] | – | – | – | 0.695 µM (≈ 1.7 µg/mL) | – | – | –
5 | CC[C@H](C)[C@H](NC(=O)[C@H](CCCN=C(N)N)NC(=O)[C@@H](NC(=O)[C@@H]1CCCN1C(=O)[C@@H](NC(=O)[C@@H](NC(=O)[C@H](CCC(N)=O)NC(=O)[C@@H]1CCCN1C(=O)[C@@H](NC(=O)[C@@H](NC(=O)[C@H](Cc1cnc[nH]1)NC(=O)[C@@H]1CCCN1C(=O)[C@@H]1CCCN1C(=O)[C@@H](NC(=O)CNC(=O)[C@H](Cc1c[nH]c2ccccc12)NC(=O)[C@H](C)NC(=O)[C@H](CCCCN)NC(=O)[C@H](C)N)[C@@H](C)CC)C(C)C)[C@@H](C)CC)[C@@H](C)CC)C(C)C)C(C)C)C(=O)N[C@@H](CCCN=C(N)N)C(=O)N1CCC[C@H]1C(=O)N[C@@H](CC(C)C)C(=O)NCC(=O)NCC(=O)N[C@@H](CC(N)=O)C(=O)N[C@H](C(=O)O)C(C)C [AKAWGIPPHVIPQIVPVRIRPLGGNV] | 8.98 µM (≈ 25 µg/mL) | 1.15 µM (≈ 3.2 µg/mL) | 8.98 µM (≈ 25 µg/mL) | – | – | – | –
6 | CC[C@H](C)[C@H](NC(=O)[C@H](CCCN=C(N)N)NC(=O)[C@H](CCCN=C(N)N)NC(=O)[C@@H]1CCCN1C(=O)[C@@H]1CCCN1C(=O)[C@H](CCCN=C(N)N)NC(=O)[C@@H]1CCCN1C(=O)[C@H](CCCN=C(N)N)NC(=O)[C@@H]1CCCN1C(=O)[C@H](CC(C)C)NC(=O)[C@H](Cc1ccc(O)cc1)NC(=O)[C@@H]1CCCN1C(=O)[C@@H]1CCCN1C(=O)[C@H](CCCCN)NC(=O)[C@H](CC(N)=O)NC(=O)[C@@H](N)C(C)C)C(=O)N[C@@H](Cc1ccc(O)cc1)C(=O)N[C@@H](CC(N)=O)C(=O)N[C@@H](CCCN=C(N)N)C(N)=O [VNKPPYLPRPRPPRRIYNR] | – | – | – | 2.01 µM (≈ 4.8 µg/mL) | – | – | –
7 | CC[C@H](C)[C@H](NC(=O)[C@H](CCCN=C(N)N)NC(=O)[C@H](CCCN=C(N)N)NC(=O)[C@@H]1CCCN1C(=O)[C@@H]1CCCN1C(=O)[C@H](CCCN=C(N)N)NC(=O)[C@H](CCCCN)NC(=O)[C@H](CCCN=C(N)N)NC(=O)[C@@H]1CCCN1C(=O)[C@H](CCCN=C(N)N)NC(=O)[C@H](Cc1ccc(O)cc1)NC(=O)[C@@H]1CCCN1C(=O)[C@H](CCCN=C(N)N)NC(=O)[C@H](CCCCN)NC(=O)[C@H](CC(=O)O)NC(=O)[C@@H](N)C(C)C)C(=O)N[C@@H](Cc1ccc(O)cc1)C(=O)N[C@@H](CC(N)=O)C(=O)N[C@@H](CCCN=C(N)N)C(N)=O [VDKRPYRPRKRPPRRIYNR] | – | – | – | 0.951 µM (≈ 2.4 µg/mL) | – | – | –

Further lines, with some results ahead:

Row | MIC [1] | MIC [2] | MIC [3] | MIC (Escherichia coli JW0013) | MIC (Pseudomonas aeruginosa) | MIC (Staphylococcus aureus) | Compound | further results
8 | 10.1 µM (≈ 30 µg/mL) | 5.03 µM (≈ 15 µg/mL) | 20.1 µM (≈ 60 µg/mL) | – | – | – | CC[C@H](C)[C@H](NC(=O)[C@H](CCC(N)=O)NC(=O)[C@H](CCCCN)NC(=O)[C@H](Cc1c[nH]c2ccccc12)NC(=O)[C@H](CC(C)C)NC(=O)[C@H](CCC(N)=O)NC(=O)[C@@H]1CCCN1C(=O)[C@H](CC(C)C)NC(=O)[C@H](CCCCN)NC(=O)[C@H](C)NC(=O)[C@H](CCC(=O)O)NC(=O)[C@H](CCCCN)NC(=O)[C@@H](NC(=O)CNC(=O)[C@@H](NC(=O)[C@@H](NC(=O)[C@@H](NC(=O)[C@@H](N)CO)[C@@H](C)CC)[C@@H](C)CC)[C@@H](C)O)[C@@H](C)O)C(=O)N[C@@H](C)C(=O)N[C@H]1CSSC[C@@H](C(=O)O)NC(=O)[C@H]([C@@H](C)O)NC(=O)[C@H](CC(N)=O)NC(=O)[C@H](Cc2ccc(O)cc2)NC(=O)[C@H](CC(C)C)NC(=O)[C@H](CCCN=C(N)N)NC1=O [SIITGTKEAKLPQLWKQIACRLYNTC] | MIC (Bacillus subtilis): ≥ 40.3 µM
9 | 2.61 µM (≈ 7.5 µg/mL) | 1.29 µM (≈ 3.7 µg/mL) | 10.4 µM (≈ 30 µg/mL) | – | – | – | CSCC[C@H](NC(=O)[C@@H](NC(=O)[C@H](CCCCN)NC(=O)[C@H](Cc1cnc[nH]1)NC(=O)[C@H](CC(C)C)NC(=O)CN)C(C)C)C(=O)N[C@@H](CCCN=C(N)N)C(=O)N[C@@H](CCC(=O)O)C(=O)N[C@H](C(=O)N[C@@H](CC(C)C)C(=O)NCC(=O)N[C@@H](Cc1ccc(O)cc1)C(=O)N[C@@H](CCC(=O)O)C(=O)N[C@@H](CCCN=C(N)N)C(=O)N[C@@H](CC(N)=O)C(=O)N[C@@H](CO)C(=O)N[C@@H](Cc1ccc(O)cc1)C(=O)N[C@@H](CCCCN)C(=O)N[C@@H](CCCCN)C(=O)N[C@@H](Cc1ccccc1)C(=O)N[C@@H](Cc1ccccc1)C(=O)N[C@@H](CC(C)C)C(=O)N[C@@H](CCCN=C(N)N)C(=O)O)C(C)C [GLHKVMREVLGYERNSYKKFFLR] | –
10 | – | – | 2 µM (≈ 3.37 µg/mL) | – | 4 µM (≈ 6.74 µg/mL) | 2 µM (≈ 3.37 µg/mL) | CC[C@H](C)[C@H](NC(=O)[C@H](CCCCN)NC(=O)[C@H](Cc1c[nH]c2ccccc12)NC(=O)[C@H](CCCCN)NC(=O)[C@@H](NC(=O)[C@H](CCCCN)NC(=O)[C@H](Cc1c[nH]c2ccccc12)NC(=O)[C@H](CCCCN)NC(=O)[C@@H](NC(=O)[C@H](CCCCN)NC(=O)[C@@H](N)Cc1c[nH]c2ccccc12)[C@@H](C)CC)[C@@H](C)CC)C(=O)N[C@@H](CCCCN)C(N)=O [WKIKWKIKWKIK] | MIC (Acinetobacter baumannii): 1.41 µM (≈ 2.38 µg/mL); MIC [5]: 2 µM (≈ 3.37 µg/mL); MIC [6]: 2 µM (≈ 3.37 µg/mL); MIC [7]: 2 µM (≈ 3.37 µg/mL); MIC (Escherichia coli): 2 µM (≈ 3.37 µg/mL); MIC (Escherichia coli UB1005): 2 µM (≈ 3.37 µg/mL); MIC [8]: 2 µM (≈ 3.37 µg/mL)
11 | – | – | – | – | > 100 µM | 45 µM (≈ 60.9 µg/mL) | CC[C@H](C)[C@H](NC(=O)[C@H](CC(C)C)NC(=O)[C@H](Cc1cnc[nH]1)NC(=O)CNC(=O)[C@H](CC(C)C)NC(=O)[C@@H](NC(=O)[C@H](CCCCN)NC(=O)[C@H](CO)NC(=O)[C@H](Cc1c[nH]c2ccccc12)NC(=O)[C@@H](N)CCSC)[C@@H](C)CC)C(=O)N[C@@H](CCCN=C(N)N)C(N)=O [MWSKILGHLIR] | MIC (Escherichia coli B): ≥ 50 µM; MIC (Bacillus subtilis 168): 5 µM (≈ 6.76 µg/mL)
12 | – | – | – | – | > 100 µM | > 100 µM | CC[C@H](C)[C@H](NC(=O)[C@H](CC(C)C)NC(=O)[C@@H]1CCCN1C(=O)CNC(=O)[C@H](CC(C)C)NC(=O)[C@@H](NC(=O)[C@H](CCCCN)NC(=O)[C@H](CO)NC(=O)[C@H](Cc1c[nH]c2ccccc12)NC(=O)[C@H](CCSC)NC(=O)CN)[C@@H](C)CC)C(=O)N[C@@H](CCCN=C(N)N)C(N)=O [GMWSKILGPLIR] | MIC (Escherichia coli B): 30 µM (≈ 41.1 µg/mL); MIC (Bacillus subtilis 168): 3.6 µM (≈ 4.93 µg/mL)
13 | – | – | – | – | 26.3 µM (≈ 36.8 µg/mL) | 9.2 µM (≈ 12.9 µg/mL) | CC[C@H](C)[C@H](NC(=O)[C@H](CC(C)C)NC(=O)[C@H](CCCCN)NC(=O)CNC(=O)[C@H](CC(C)C)NC(=O)[C@@H](NC(=O)[C@H](CCCCN)NC(=O)[C@H](CO)NC(=O)[C@H](Cc1c[nH]c2ccccc12)NC(=O)[C@H](CCSC)NC(=O)CN)[C@@H](C)CC)C(=O)N[C@@H](CCCN=C(N)N)C(N)=O [GMWSKILGKLIR] | MIC (Escherichia coli B): 3.7 µM (≈ 5.18 µg/mL); MIC (Bacillus subtilis 168): 0.9 µM (≈ 1.26 µg/mL)
